Test results taken from ChEMBL document CHEMBL3286361, “Design and discovery of flavonoid-based HIV-1 integrase inhibitors targeting both the active site and the interaction with LEDGF/p75” (Bioorg Med Chem, 2014).
In brackets after ≈: the same amount, converted by molar mass.

Legend:
[1] = Cytotoxicity against human C8166 cells assessed as inhibition of cell proliferation after 72 hrs by MTT assay; type: cell-based
[2] = biological target: T1, Human immunodeficiency virus type 1 integrase (Human immunodeficiency virus 1, UniProt Q7ZJM1); assay: Inhibition of recombinant HIV-1 integrase strand transfer activity using 32P 5' end-labeled linear 21'mer as substrate preincubated for 30 mins prior to substrate challenge by phosphorimaging analysis
T1 sequence (Q7ZJM1 whole entry): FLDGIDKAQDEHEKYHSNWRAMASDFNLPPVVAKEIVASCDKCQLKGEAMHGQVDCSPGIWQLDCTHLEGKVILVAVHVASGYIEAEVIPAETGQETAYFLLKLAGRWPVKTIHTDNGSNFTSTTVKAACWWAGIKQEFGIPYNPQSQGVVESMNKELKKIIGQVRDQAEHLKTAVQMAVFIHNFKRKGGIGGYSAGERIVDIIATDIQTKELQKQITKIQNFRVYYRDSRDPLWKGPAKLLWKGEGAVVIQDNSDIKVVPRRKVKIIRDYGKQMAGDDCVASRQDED

[3] = test system: Human immunodeficiency virus 1; assay: Antiviral activity against HIV-1 3B infected in human C8166 cells assessed as inhibition of virus-induced cytopathogenicity by measuring syncytial cell number after 3 days by inverted microscopic analysis; type: functional, organism-based; details: Human immunodeficiency virus 1, 3B, C8166, 72 h
[4] = Therapeutic index, ratio of CC50 for human C8166 cells to EC50 for HIV-1 3B infected in human C8166 cells; type: cell-based; details: HIV-1 3B infected C8166 cells, read-out: Ratio CC50/EC50
[5] = biological target: T1, Human immunodeficiency virus type 1 integrase; assay: Inhibition of recombinant HIV-1 integrase 3'-processing activity using 32P 5' end-labeled linear 21'mer as substrate preincubated for 30 mins prior to substrate challenge by phosphorimaging analysis
[6] = biological target: T1, Human immunodeficiency virus type 1 integrase; assay: Inhibition of His6-tagged HIV-1 integrase assessed as decrease in integrase-Flag-LEDGF/p75 interaction preincubated with enzyme for 30 mins followed by addition of Flag-LEDGF/p75 for 1 hr by AlphaScreen assay

Row | Compound | CC50 at 72 h [1] [µg/mL] | IC50 [2] [µM] | EC50 [3] [µg/mL] | selectivity ratio [4] | IC50 [5] [µM] | IC50 [6] [µM]
1 | O=c1c(OCc2ccc(F)cc2)c(-c2ccc(O)c(O)c2)oc2cc(O)cc(O)c12 | 22.5 (≈ 54.8 µM) | > 20 | 1.95 (≈ 4.75 µM) | 12 | > 20 | 0.38
2 | O=c1c(O)c(-c2ccc(O)c(O)c2)oc2cc(OCc3ccc(F)cc3)cc(O)c12 | 5.68 (≈ 13.8 µM) | 4 | > 5.68 |  | 20 | 0.94
3 | O=c1c(O)c(-c2ccc(O)c(O)c2)oc2cc(N3CCOCC3)cc(O)c12 | 24.7 (≈ 66.5 µM) | > 20 | 5.05 (≈ 13.6 µM) | 5 | > 20 | 0.97
4 | O=c1cc(-c2ccccc2)oc2cc(OCc3ccc(F)cc3)c(O)c(O)c12 | 5.8 (≈ 15.3 µM) | 7 | 3.04 (≈ 8.03 µM) | 2 | > 20 | > 20
5 | CC(C)(C)Oc1cc2oc(-c3ccccc3)cc(=O)c2c(O)c1O | 40.5 (≈ 124 µM) | > 100 | 8.45 (≈ 25.9 µM) | 5 | > 100 | > 20
6 | O=c1cc(-c2ccc(O)c(O)c2)oc2cc(OCc3ccc(F)cc3)cc(O)c12 | 16.2 (≈ 41.1 µM) | > 20 | 7.37 (≈ 18.7 µM) | 2 | > 20 | 
7 | O=c1cc(-c2ccc(O)c(O)c2)oc2cc(N3CCOCC3)cc(O)c12 | 63.6 (≈ 179 µM) | > 20 | 2.21 (≈ 6.22 µM) | 29 | > 20 | 1.6
8 | O=c1cc(-c2ccc(O)cc2)oc2cc(OCc3ccc(F)cc3)cc(O)c12 | 16.8 (≈ 44.4 µM) | 35 | 10.7 (≈ 28.3 µM) | 1.6 | 80 | > 20
9 | CC(C)(C)Oc1cc(O)c2c(=O)cc(-c3ccc(O)cc3)oc2c1 | 25 (≈ 76.6 µM) | > 20 | 3.2 (≈ 9.81 µM) | 8 | > 20 | > 20
10 | O=c1cc(-c2ccc(O)cc2)oc2cc(N3CCOCC3)cc(O)c12 | 105 (≈ 311 µM) | > 20 | 68.4 (≈ 202 µM) | 1.5 | > 20 | 1.7
11 | O=c1cc(-c2ccccc2)oc2cc(OCc3ccc(F)cc3)cc(O)c12 | 8.35 (≈ 23 µM) | > 20 | > 8.35 |  | > 20 | > 20
12 | CC(C)(C)Oc1cc(O)c2c(=O)cc(-c3ccccc3)oc2c1 | 61.2 (≈ 197 µM) | 50 | 12.1 (≈ 39 µM) | 5 | > 100 | > 20
13 | O=c1cc(-c2ccccc2)oc2cc(N3CCOCC3)cc(O)c12 | > 200 | > 20 | > 200 |  | > 20 | > 20
14 | O=C1C[C@@H](c2ccc(O)cc2)Oc2cc(OCc3ccc(F)cc3)cc(O)c21 | 11.5 (≈ 30.2 µM) | > 100 | 2.06 (≈ 5.42 µM) | 6 | > 100 | 
15 | CC(C)(C)Oc1cc(O)c2c(c1)O[C@H](c1ccc(O)cc1)CC2=O | 25.4 (≈ 77.4 µM) | > 100 | 3.05 (≈ 9.29 µM) | 8 | > 100 | > 20
16 | O=c1c(-c2ccc(O)cc2)coc2cc(OCc3ccc(F)cc3)cc(O)c12 | > 200 | 80 | 11 (≈ 29.1 µM) | > 18 | > 100 | > 20
17 | CC(C)(C)Oc1cc(O)c2c(=O)c(-c3ccc(O)cc3)coc2c1 | 47.7 (≈ 146 µM) | 70 | > 47.7 |  | > 100 | > 20
18 | O=c1c(-c2ccc(O)cc2)coc2cc(N3CCOCC3)cc(O)c12 | > 200 | > 20 | 0.826 (≈ 2.43 µM) | > 242 | > 20 | 1.7
19 | O=c1c(O)c(-c2ccc3c(c2)OC(c2ccccc2)(c2ccccc2)O3)oc2cc(O)cc(O)c12 |  | > 20 |  |  | > 20 | > 20
20 | O=c1c(O)c(-c2ccc(O)c(O)c2)oc2cc(O)cc(OCc3ccc(F)cc3)c12 | 24 (≈ 58.5 µM) | 7.6 | 4.54 (≈ 11.1 µM) | 5 | > 20 | 1.8
21 | O=c1c(O)c(-c2ccc(O)c(OCc3ccc(F)cc3)c2)oc2cc(O)cc(O)c12 | 23.8 (≈ 58 µM) | > 20 | 0.47 (≈ 1.15 µM) | 51 | > 20 | 1.8
22 | O=c1c(O)c(-c2ccc(OCc3ccc(F)cc3)c(O)c2)oc2cc(O)cc(O)c12 | 23.4 (≈ 57 µM) | > 20 | 4.1 (≈ 9.99 µM) | 6 | > 20 | 1.4
23 | O=c1cc(-c2ccc(O)cc2)oc2cc(O)cc(O)c12 [APIGENIN] | 17.2 (≈ 63.6 µM) | > 20 | 4.46 (≈ 16.5 µM) | 4 | > 20 | 1.5
24 | O=c1cc(-c2ccccc2)oc2cc(O)c(O)c(O)c12 [BAICALEIN] | 30.3 (≈ 112 µM) |  | 1.67 (≈ 6.18 µM) |  |  | 
25 | O=c1cc(-c2ccccc2)oc2cc(O)cc(O)c12 [CHRYSIN] | 110 (≈ 433 µM) | > 20 | 13.4 (≈ 52.7 µM) | 8 | > 20 | 1.4
26 | O=c1c(-c2ccc(O)cc2)coc2cc(O)cc(O)c12 [GENISTEIN] | 36.2 (≈ 134 µM) | > 20 | 13.9 (≈ 51.4 µM) | 3 | > 20 | 1.1
27 | O=c1cc(-c2ccc(O)c(O)c2)oc2cc(O)cc(O)c12 [LUTEOLIN] | 17.9 (≈ 62.5 µM) | 8.9 | 2.48 (≈ 8.66 µM) | 7 | > 20 | 0.45
28 | O=C1C[C@@H](c2ccc(O)cc2)Oc2cc(O)cc(O)c21 [NARINGENIN] | 142 (≈ 520 µM) | > 20 | 9.47 (≈ 34.8 µM) | 15 | > 20 | 1.7
29 | O=c1c(O)c(-c2ccc(O)c(O)c2)oc2cc(O)cc(O)c12 [QUERCETIN] | 105 (≈ 347 µM) | 8 | 2.05 (≈ 6.78 µM) | 44 | > 20 | 0.6
